Tests used:
[1] = test system: chickweed (Stellaria media L; STEME); assay: Postemergence herbicidal activity, greenhouse, visual injury: chickweed; assay type: in vivo; set-up: key: visual injury, 0–100%: 0 = no injury, 100 = complete kill
Procedure: (§1) Evaluation of Postemergence Herbicidal Safening in Cereal Crops
(§2) Seeds of the desired test plant species were planted in Sun Gro MetroMix® 306 planting mixture, which typically has a pH of 6.0 to 6.8 and an organic matter content of about 30 percent, in plastic pots with a surface area of 103.2 square centimeters (cm^2). When required to ensure good germination and healthy plants, a fungicide treatment and/or other chemical or physical treatment was applied. The plants were grown for 7-36 days (d) in a greenhouse with an approximate 14-hour (h) photoperiod which was maintained at about 18° C. during the day and 17° C. during the night. Nutrients and water were added on a regular basis and supplemental lighting was provided with overhead metal halide 1000-Watt lamps as necessary. The plants were employed for testing when they reached the second or third true leaf stage.
(§3) Weighed amounts of esters (methyl) or salts (TEA [triethylammonium], K [potassium]) of 4-amino-3-chloro-6-(4-chloro-2-fluoro-3-methoxyphenyl)pyridine-2-carboxylic acid (Compound 1) were dissolved in a volume of 97:3 volume/volume (v/v) acetone/dimethylsulfoxide (DMSO) to obtain stock solutions. […] The concentrated stock solutions were diluted with an aqueous mixture of 1.5% v/v of Agri-dex crop oil concentrate to provide the appropriate application rates. Compound requirements are based upon a 12 mL application volume at a rate of 187 liters per hectare (L/ha). Stocks solutions of the safeners were prepared following the same procedure. Spray solutions of the safeners and experimental compound mixtures were prepared by adding the stock solutions to the appropriate amount of dilution solution to form a 12 mL spray solution with active ingredients in two-way combinations. Formulated compounds were applied to the plant material with an overhead Mandel track sprayer equipped with 8002E nozzles calibrated to deliver 187 L/ha over an application area of 0.503 square meters (m^2) at a spray height of 18 inches (43 centimeters (cm)) above average plant canopy. Control plants were sprayed in the same manner with the solvent blank.
(§4) The treated plants and control plants were placed in a greenhouse as described above and watered by sub-irrigation to prevent wash-off of the test compounds. After 20-22 d, the condition of the test plants as compared with that of the control plants was determined visually and scored on a scale of 0 to 100 percent where 0 corresponds to no injury and 100 corresponds to complete kill.
(§5) Colby's equation was used to determine the herbicidal effects expected from the mixtures (Colby, S. R. Calculation of the synergistic and antagonistic response of herbicide combinations. Weeds 1967, 15, 20-22.).
(§6) The following equation was used to calculate the expected activity of mixtures containing two active ingredients, A and B: Expected=A+B−(A×B/100)
(§7) A=observed efficacy of active ingredient A at the same concentration as used in the mixture.
(§8) B=observed efficacy of active ingredient B at the same concentration as used in the mixture.

[2] = test system: Russian thistle (Salsola iberica L; SASKR); assay: Postemergence herbicidal activity, greenhouse, visual injury: Russian thistle; assay type: in vivo; set-up: key: visual injury, 0–100%: 0 = no injury, 100 = complete kill
Procedure: as §1, §2, §3, §4, §5, §6, §7, §8

[3] = test system: purple deadnettle (Lamium purpureum L; LAMPU); assay: Postemergence herbicidal activity, greenhouse, visual injury: purple deadnettle; assay type: in vivo; set-up: key: visual injury, 0–100%: 0 = no injury, 100 = complete kill
Procedure: as §1, §2, §3, §4, §5, §6, §7, §8

[4] = test system: barley (Hordeum vulgare L; HORVS); assay: Postemergence herbicidal safening, greenhouse, visual injury: barley; assay type: in vivo
Procedure: as §1, §2, §3, §4, §5, §6, §7, §8

[5] = test system: wild buckwheat (Polygonum convolvulus L; POLCO); assay: Postemergence herbicidal activity, greenhouse, visual injury: wild buckwheat; assay type: in vivo
Procedure: as §1, §2, §3, §4, §5, §6, §7, §8

[6] = test system: cleavers (Galium aparine L; GALAP); assay: Postemergence herbicidal activity, greenhouse, visual injury: cleavers; assay type: in vivo; set-up: key: visual injury, 0–100%: 0 = no injury, 100 = complete kill
Procedure: as §1, §2, §3, §4, §5, §6, §7, §8

[7] = test system: barley (HORVW); assay: Postemergence herbicidal safening, greenhouse, visual injury: barley (HORVW)
[8] = test system: corn poppy (Papaver rhoeas L; PAPRH); assay: Postemergence herbicidal activity, greenhouse, visual injury: corn poppy; assay type: in vivo
Procedure: as §1, §2, §3, §4, §5, §6, §7, §8

[9] = test system: wild pansy (Viola tricolor L; VIOTR); assay: Postemergence herbicidal activity, greenhouse, visual injury: wild pansy; assay type: in vivo; set-up: key: visual injury, 0–100%: 0 = no injury, 100 = complete kill
Procedure: as §1, §2, §3, §4, §5, §6, §7, §8

[10] = test system: bird's-eye speedwell (Veronica persica L; VERPE); assay: Postemergence herbicidal activity, greenhouse, visual injury: bird's-eye speedwell; assay type: in vivo; set-up: key: visual injury, 0–100%: 0 = no injury, 100 = complete kill
Procedure: as §1, §2, §3, §4, §5, §6, §7, §8

[11] = test system: wheat (Triticum aestivum L; TRZAW); assay: Postemergence herbicidal safening, greenhouse, visual injury: wheat (TRZAW); assay type: in vivo
Procedure: as §1, §2, §3, §4, §5, §6, §7, §8

[12] = test system: durum wheat (Triticum durum L; TRZDU); assay: Postemergence herbicidal safening, greenhouse, visual injury: durum wheat; assay type: in vivo
Procedure: as §1, §2, §3, §4, §5, §6, §7, §8

[13] = test system: wheat (Triticum aestivum L; TRZAS); assay: Postemergence herbicidal safening, greenhouse, visual injury: wheat; assay type: in vivo
Procedure: as §1, §2, §3, §4, §5, §6, §7, §8

NC(=O)NS(=O)(=O)c1ccccc1Cl [Compound 2-CBSU, N-(aminocarbonyl)-2-chlorobenzenesulfonamide, reference compound]
STEME Ob ([1]; applied alone at 17.5 g/ha): 0% | STEME Ob ([1]; applied alone at 35 g/ha): 0% | STEME Ob ([1]; applied alone at 70 g/ha): 0% | STEME Ob ([1]; applied alone at 140 g/ha): 0% | SASKR Ob ([2]; applied alone at 17.5 g/ha): 0% | SASKR Ob ([2]; applied alone at 35 g/ha): 0% | SASKR Ob ([2]; applied alone at 70 g/ha): 0% | SASKR Ob ([2]; applied alone at 140 g/ha): 0% | LAMPU Ob (Observed values) ([3]; safener 4.4 g/ha alone): 0 | LAMPU Ob (Observed values) ([3]; safener 8.8 g/ha alone): 0 | LAMPU Ob (Observed values) ([3]; safener 17.5 g/ha alone): 0 | LAMPU Ob (Observed values) ([3]; safener 35 g/ha alone): 0 | HORVS Ob ([4]; applied alone at 17.5 g/ha): 0% | HORVS Ob ([4]; applied alone at 35 g/ha): 0% | HORVS Ob ([4]; applied alone at 70 g/ha): 0% | HORVS Ob ([4]; applied alone at 140 g/ha): 0% | POLCO Ob ([5]; applied alone at 17.5 g/ha): 0% | POLCO Ob ([5]; applied alone at 35 g/ha): 0% | POLCO Ob ([5]; applied alone at 70 g/ha): 0% | POLCO Ob ([5]; applied alone at 140 g/ha): 0% | GALAP Ob ([6]; applied alone at 17.5 g/ha): 0% | GALAP Ob ([6]; applied alone at 35 g/ha): 0% | GALAP Ob ([6]; applied alone at 70 g/ha): 0% | GALAP Ob ([6]; applied alone at 140 g/ha): 0% | HORVW Ob (Observed values) ([7]; safener 4.4 g/ha alone): 0% | HORVW Ob (Observed values) ([7]; safener 8.8 g/ha alone): 0% | HORVW Ob (Observed values) ([7]; safener 17.5 g/ha alone): 0% | HORVW Ob (Observed values) ([7]; safener 35 g/ha alone): 0% | PAPRH Ob ([8]; applied alone at 17.5 g/ha): 0% | PAPRH Ob ([8]; applied alone at 35 g/ha): 0% | PAPRH Ob ([8]; applied alone at 70 g/ha): 0% | PAPRH Ob ([8]; applied alone at 140 g/ha): 0% | PAPRH Ob (Observed values) ([8]; safener 4.4 g/ha alone): 0 | PAPRH Ob (Observed values) ([8]; safener 8.8 g/ha alone): 0 | PAPRH Ob (Observed values) ([8]; safener 17.5 g/ha alone): 0 | PAPRH Ob (Observed values) ([8]; safener 35 g/ha alone): 0 | VIOTR Ob ([9]; applied alone at 17.5 g/ha): 0% | VIOTR Ob ([9]; applied alone at 35 g/ha): 0% | VIOTR Ob ([9]; applied alone at 70 g/ha): 0% | VIOTR Ob ([9]; applied alone at 140 g/ha): 0% | VERPE Ob ([10]; applied alone at 17.5 g/ha): 0% | VERPE Ob ([10]; applied alone at 35 g/ha): 0% | VERPE Ob ([10]; applied alone at 70 g/ha): 0% | VERPE Ob ([10]; applied alone at 140 g/ha): 0% | TRZAW Ob (Observed values) ([11]; safener 4.4 g/ha alone): 0% | TRZAW Ob (Observed values) ([11]; safener 8.8 g/ha alone): 0% | TRZAW Ob (Observed values) ([11]; safener 17.5 g/ha alone): 0% | TRZAW Ob (Observed values) ([11]; safener 35 g/ha alone): 0% | TRZDU Ob (Observed values) ([12]; safener 4.4 g/ha alone): 0% | TRZDU Ob (Observed values) ([12]; safener 8.8 g/ha alone): 0% | TRZDU Ob (Observed values) ([12]; safener 17.5 g/ha alone): 0% | TRZDU Ob (Observed values) ([12]; safener 35 g/ha alone): 0% | TRZAS Ob ([13]; applied alone at 17.5 g/ha): 0% | TRZAS Ob ([13]; applied alone at 35 g/ha): 0% | TRZAS Ob ([13]; applied alone at 70 g/ha): 0% | TRZAS Ob ([13]; applied alone at 140 g/ha): 0%

From patent US8921267B2, “Safening 6-(trisubstituted phenyl)-4-amino-2-pyridinecarboxylate herbicide injury on cereal crops” (Dow AgroSciences LLC, priority 2008, dated 2014)
